What was measured:
Assay in all cases: relative viability (nuclei count vs DMSO), 5 days (fraction); higher = more cells survive
Gemcitabine + Pictilisib = compound: Nc1ccn([C@@H]2O[C@H](CO)[C@@H](O)C2(F)F)c(=O)n1 [Gemcitabine] + CS(=O)(=O)N1CCN(Cc2cc3nc(-c4cccc5[nH]ncc45)nc(N4CCOCC4)c3s2)CC1 [Pictilisib] (partner 1 µM)
Procedure, shortened: (§1)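 Each reported value is a median over duplicate plates. It expresses relative viability: treated-well nuclei count divided by vehicle-well nuclei count. Lung cancer cell lines in 1536-well plates were dosed by pin tool a day after seeding, alone with one drug or with a fixed anchor-drug dose plus five library-drug doses (not always all listed) in √10 steps, and nuclei were counted after 5 days.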

Gemcitabine + Navitoclax = compound: Nc1ccn([C@@H]2O[C@H](CO)[C@@H](O)C2(F)F)c(=O)n1 [Gemcitabine] + CC1(C)CCC(c2ccc(Cl)cc2)=C(CN2CCN(c3ccc(C(=O)NS(=O)(=O)c4ccc(N[C@H](CCN5CCOCC5)CSc5ccccc5)c(S(=O)(=O)C(F)(F)F)c4)cc3)CC2)C1 [Navitoclax] (partner 0.5 µM)
Procedure, shortened: as §1

Gemcitabine + Bortezomib = compound: Nc1ccn([C@@H]2O[C@H](CO)[C@@H](O)C2(F)F)c(=O)n1 [Gemcitabine] + CC(C)C[C@H](NC(=O)[C@H](Cc1ccccc1)NC(=O)c1cnccn1)B(O)O [Bortezomib] (partner 0.002 µM)
Procedure, shortened: as §1

Gemcitabine + Linsitinib = compound: Nc1ccn([C@@H]2O[C@H](CO)[C@@H](O)C2(F)F)c(=O)n1 [Gemcitabine] + C[C@]1(O)C[C@@H](c2nc(-c3ccc4ccc(-c5ccccc5)nc4c3)c3c(N)nccn32)C1 [Linsitinib] (partner 1 µM)
Procedure, shortened: as §1

Gemcitabine + Olaparib = compound: Nc1ccn([C@@H]2O[C@H](CO)[C@@H](O)C2(F)F)c(=O)n1 [Gemcitabine] + O=C(c1cc(Cc2n[nH]c(=O)c3ccccc23)ccc1F)N1CCN(C(=O)C2CC2)CC1 [Olaparib] (partner 8 µM)
Procedure, shortened: as §1

Gemcitabine + Crizotinib = compound: Nc1ccn([C@@H]2O[C@H](CO)[C@@H](O)C2(F)F)c(=O)n1 [Gemcitabine] + C[C@@H](Oc1cc(-c2cnn(C3CCNCC3)c2)cnc1N)c1c(Cl)ccc(F)c1Cl [Crizotinib] (partner 1 µM)
Procedure, shortened: as §1

Gemcitabine + Foretinib = compound: Nc1ccn([C@@H]2O[C@H](CO)[C@@H](O)C2(F)F)c(=O)n1 [Gemcitabine] + COc1cc2c(Oc3ccc(NC(=O)C4(C(=O)Nc5ccc(F)cc5)CC4)cc3F)ccnc2cc1OCCCN1CCOCC1 [Foretinib] (partner 0.25 µM)
Procedure, shortened: as §1

Gemcitabine + Alpelisib = compound: Nc1ccn([C@@H]2O[C@H](CO)[C@@H](O)C2(F)F)c(=O)n1 [Gemcitabine] + Cc1nc(NC(=O)N2CCC[C@H]2C(N)=O)sc1-c1ccnc(C(C)(C)C(F)(F)F)c1 [Alpelisib] (partner 2 µM)
Procedure, shortened: as §1

Gemcitabine + Lapatinib = compound: Nc1ccn([C@@H]2O[C@H](CO)[C@@H](O)C2(F)F)c(=O)n1 [Gemcitabine] + CS(=O)(=O)CCNCc1ccc(-c2ccc3ncnc(Nc4ccc(OCc5cccc(F)c5)c(Cl)c4)c3c2)o1 [Lapatinib] (partner 2 µM)
Procedure, shortened: as §1

Gemcitabine = compound: Nc1ccn([C@@H]2O[C@H](CO)[C@@H](O)C2(F)F)c(=O)n1 [Gemcitabine]
Procedure, shortened: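 Lung cancer cell lines received five library-drug doses (not always all listed) spaced by √10, pinned on vehicle-anchored 1536-well plates after an overnight stay at 37 °C. Five days later, with no medium change, nuclei were Hoechst-stained, imaged at 4× and counted with MetaXpress. Viability is treated-well nuclei relative to vehicle-well nuclei, as a median across plates. Passing plates had control CV below 25% and at least one doubling.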

Work on EBC-1 yielded a relative viability (Gemcitabine + Pictilisib; first compound 0.001 µM) of 0.355, a relative viability (Gemcitabine + Pictilisib; first compound 0.003162 µM) of 0.237 and a relative viability (Gemcitabine + Pictilisib; first compound 0.01 µM) of 0.15. The relative viability (Gemcitabine + Pictilisib; first compound 0.03162 µM) was 0.151, the relative viability (Gemcitabine + Pictilisib; first compound 0.1 µM) was 0.143 and the relative viability (Gemcitabine + Navitoclax; first compound 0.001 µM) was 0.268. It also gave a relative viability (Gemcitabine + Navitoclax; first compound 0.003162 µM) of 0.187, a relative viability (Gemcitabine + Navitoclax; first compound 0.01 µM) of 0.136 and a relative viability (Gemcitabine + Navitoclax; first compound 0.03162 µM) of 0.19. For the same cell line, the relative viability (Gemcitabine + Navitoclax; first compound 0.1 µM) was 0.126, the relative viability (Gemcitabine + Bortezomib; first compound 0.001 µM) was 0.53 and the relative viability (Gemcitabine + Bortezomib; first compound 0.003162 µM) was 0.307. The relative viability (Gemcitabine + Bortezomib; first compound 0.01 µM) was 0.15, the relative viability (Gemcitabine + Bortezomib; first compound 0.03162 µM) was 0.198 and the relative viability (Gemcitabine + Bortezomib; first compound 0.1 µM) was 0.164. The relative viability (Gemcitabine + Linsitinib; first compound 0.001 µM) was 0.777, the relative viability (Gemcitabine + Linsitinib; first compound 0.003162 µM) was 0.369 and the relative viability (Gemcitabine + Linsitinib; first compound 0.01 µM) was 0.142. The relative viability (Gemcitabine + Linsitinib; first compound 0.03162 µM) was 0.0966, the relative viability (Gemcitabine + Linsitinib; first compound 0.1 µM) was 0.115 and the relative viability (Gemcitabine + Olaparib; first compound 0.001 µM) was 0.73. The relative viability (Gemcitabine + Olaparib; first compound 0.003162 µM) was 0.195, the relative viability (Gemcitabine + Olaparib; first compound 0.01 µM) was 0.141 and the relative viability (Gemcitabine + Olaparib; first compound 0.03162 µM) was 0.116. The relative viability (Gemcitabine + Olaparib; first compound 0.1 µM) was 0.107, the relative viability (Gemcitabine + Crizotinib; first compound 0.001 µM) was 0.192 and the relative viability (Gemcitabine + Crizotinib; first compound 0.003162 µM) was 0.166. The relative viability (Gemcitabine + Crizotinib; first compound 0.01 µM) was 0.161, the relative viability (Gemcitabine + Crizotinib; first compound 0.03162 µM) was 0.134 and the relative viability (Gemcitabine + Crizotinib; first compound 0.1 µM) was 0.159. For the same cell line, the relative viability (Gemcitabine + Foretinib; first compound 0.001 µM) was 0.0943, the relative viability (Gemcitabine + Foretinib; first compound 0.003162 µM) was 0.0886 and the relative viability (Gemcitabine + Foretinib; first compound 0.01 µM) was 0.0845. It also gave a relative viability (Gemcitabine + Foretinib; first compound 0.03162 µM) of 0.0844, a relative viability (Gemcitabine + Foretinib; first compound 0.1 µM) of 0.0813 and a relative viability (Gemcitabine + Alpelisib; first compound 0.001 µM) of 0.589. It also gave a relative viability (Gemcitabine + Alpelisib; first compound 0.003162 µM) of 0.21, a relative viability (Gemcitabine + Alpelisib; first compound 0.01 µM) of 0.168 and a relative viability (Gemcitabine + Alpelisib; first compound 0.03162 µM) of 0.187. It also gave a relative viability (Gemcitabine + Alpelisib; first compound 0.1 µM) of 0.165, a relative viability (Gemcitabine + Lapatinib; first compound 0.001 µM) of 0.15 and a relative viability (Gemcitabine + Lapatinib; first compound 0.003162 µM) of 0.187. The relative viability (Gemcitabine + Lapatinib; first compound 0.01 µM) was 0.176, the relative viability (Gemcitabine + Lapatinib; first compound 0.03162 µM) was 0.181 and the relative viability (Gemcitabine + Lapatinib; first compound 0.1 µM) was 0.167. It also gave a relative viability (Gemcitabine; 0.001 µM) of 0.791, a relative viability (Gemcitabine; 0.003162 µM) of 0.235 and a relative viability (Gemcitabine; 0.01 µM) of 0.174. For the same cell line, the relative viability (Gemcitabine; 0.03162 µM) was 0.138 and the relative viability (Gemcitabine; 0.1 µM) was 0.142.

From the supplement of paper PMC10307832
